Data published in paper PMC10257291, “Biological activities of extracts and compounds from Thai Kae-Lae (Maclura cochinchinensis (Lour.) Corner)” (BMC Complementary Medicine and Therapies, 2023).

Key:
WT1 protein = tested on: WT1 protein; parameters: method as in PMID 29274817; conditions: compounds from Mah-Lueang; cited from earlier work

Experimental for red blood cells: The whole blood samples were obtained from normal volunteers. Red blood cells were separated by centrifugation and washed 2 times with 0.9% NaCl. Then, 2% RBC suspension was incubated with crude fractional extracts and compounds at 37 °C for 30 min. Triton-X 100 (2%) and NaCl (0.9%) were positive and negative controls, respectively. Then, the supernatant was collected, and haemoglobin concentration was measured by spectrophotometry at 540 nm. The haemolysis induction was calculated using the following equation:5 %Haemolysisinduction=Absorbance of sample/Absorbance of positive contr×100

| Compound | decrease of WT1 protein in KG-1a cells (WT1 protein) [%] | Haemolysis (%) (red blood cells) |
| --- | --- | --- |
| CC(C)=C1C[C@@H]2O[C@@]2(C)CC/C=C(\C)CC1=O [Germacrone-4,5-epoxide] | 92.22 |  |
| CC(C)=C1C[C@H]2[C@@H](CC[C@]2(C)O)[C@](C)(O)CC1=O [zedoarondiol] | 95.52 |  |
| Triton X100 [0.05% Triton X100] |  | 100 |
